Experimental data: PubChem BioAssay AID1963962 (Molecular Pharmacology Branch, DTP, NCI, 2024)
Each block holds one molecule with its values, some of them ahead of it.

Tested on: 967376-340-R-J2-PDC multicell spheroid viability
Assay: Anticancer human tumor 967376-340-R-J2-PDC patient-derived colon adenocarcinoma cell line growth inhibition [PI3K]
Settings: for IC50: curve of first compound; for viability, T/C: stronger effect = lower value
Outline: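 Multi-cell spheroids combine tumor cells with HUVEC and human MSCs, treated with targeted agents alone or with inavolisib, alpelisib, duvelisib or copanlisib. Concentrations fall in half-log steps from at or near clinical Cmax, or from 10 microM where Cmax is unknown; viability read-out.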

[1] = second compound 0.00316 µM, first compound 0.0316 µM
[2] = second compound 0.00316 µM, first compound 0.1 µM
[3] = second compound 0.00316 µM, first compound 0.316 µM
[4] = second compound 0.00316 µM, first compound 1 µM
[5] = second compound 0.00316 µM, first compound 3.16 µM
[6] = second compound 0.00316 µM, first compound 10 µM
[7] = second compound 0.01 µM, first compound 0.0316 µM
[8] = second compound 0.01 µM, first compound 0.1 µM
[9] = second compound 0.01 µM, first compound 0.316 µM
[10] = second compound 0.01 µM, first compound 1 µM
[11] = second compound 0.01 µM, first compound 3.16 µM
[12] = second compound 0.01 µM, first compound 10 µM
[13] = second compound 0.0316 µM, first compound 0.0316 µM
[14] = second compound 0.0316 µM, first compound 0.1 µM
[15] = second compound 0.0316 µM, first compound 0.316 µM
[16] = second compound 0.0316 µM, first compound 1 µM
[17] = second compound 0.0316 µM, first compound 3.16 µM
[18] = second compound 0.0316 µM, first compound 10 µM
[19] = second compound 0.1 µM, first compound 0.0316 µM
[20] = second compound 0.1 µM, first compound 0.1 µM
[21] = second compound 0.1 µM, first compound 0.316 µM
[22] = second compound 0.1 µM, first compound 1 µM
[23] = second compound 0.1 µM, first compound 3.16 µM
[24] = second compound 0.1 µM, first compound 10 µM
[25] = second compound 0.316 µM, first compound 0.0316 µM
[26] = second compound 0.316 µM, first compound 0.1 µM
[27] = second compound 0.316 µM, first compound 0.316 µM
[28] = second compound 0.316 µM, first compound 1 µM
[29] = second compound 0.316 µM, first compound 3.16 µM
[30] = second compound 0.316 µM, first compound 10 µM
[31] = second compound 1 µM, first compound 0.0316 µM
[32] = second compound 1 µM, first compound 0.1 µM
[33] = second compound 1 µM, first compound 0.316 µM
[34] = second compound 1 µM, first compound 1 µM
[35] = second compound 1 µM, first compound 3.16 µM
[36] = second compound 1 µM, first compound 10 µM
[37] = second compound 3.16 µM, first compound 0.0316 µM
[38] = second compound 3.16 µM, first compound 0.1 µM
[39] = second compound 3.16 µM, first compound 0.316 µM
[40] = second compound 3.16 µM, first compound 1 µM
[41] = second compound 10 µM, first compound 0.0316 µM
[42] = second compound 10 µM, first compound 0.1 µM
[43] = second compound 10 µM, first compound 0.316 µM
[44] = second compound 10 µM, first compound 1 µM
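Note: spheroids exposed to agents for 7 days before read-out.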
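Throughout, for viability, T/C: luminescence used as surrogate of cell viability.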

IC50 (second compound 0.00316 µM): > 10 µM | IC50 (second compound 0.01 µM): > 10 µM | IC50 (second compound 0.0316 µM): 7.86 µM | IC50 (second compound 0.1 µM): 1.2 µM | IC50 (second compound 0.316 µM): < 0.0316 µM | IC50 (second compound 1 µM): < 0.0316 µM
SMILES: CC1(C)CCC(CN2CCN(c3ccc(C(=O)NS(=O)(=O)c4ccc(NCC5CCOCC5)c([N+](=O)[O-])c4)c(Oc4cnc5[nH]ccc5c4)c3)CC2)=C(c2ccc(Cl)cc2)C1 + COc1c(OCCCN2CCOCC2)ccc2c3n(c(=NC(=O)c4cnc(N)nc4)nc12)CCN3
viability, T/C [1]: 92.6% | viability, T/C [2]: 82% | viability, T/C [3]: 94.8% | viability, T/C [4]: 108% | viability, T/C [5]: 81.6% | viability, T/C [6]: 64.3% | viability, T/C [7]: 83.2% | viability, T/C [8]: 87.6% | viability, T/C [9]: 82.9% | viability, T/C [10]: 75.8% | viability, T/C [11]: 76.4% | viability, T/C [12]: 55.8% | viability, T/C [13]: 76.9% | viability, T/C [14]: 73.6% | viability, T/C [15]: 63.6% | viability, T/C [16]: 67.2% | viability, T/C [17]: 62.6% | viability, T/C [18]: 46.1% | viability, T/C [19]: 56.6% | viability, T/C [20]: 67% | viability, T/C [21]: 44.2% | viability, T/C [22]: 48.5% | viability, T/C [23]: 54.6% | viability, T/C [24]: 39.5% | viability, T/C [25]: 35.4% | viability, T/C [26]: 44.6% | viability, T/C [27]: 31.2% | viability, T/C [28]: 40% | viability, T/C [29]: 37.4% | viability, T/C [30]: 21.4% | viability, T/C [31]: 48.5% | viability, T/C [32]: 28.9% | viability, T/C [33]: 35.2% | viability, T/C [34]: 24.8% | viability, T/C [35]: 30.9% | viability, T/C [36]: 27.8%

SMILES: Cc1nc(NC(=O)N2CCCC2C(N)=O)sc1-c1ccnc(C(C)(C)C(F)(F)F)c1 (stereo not drawn)
viability, T/C (compound 0.1 µM): 85.3% [middle of 8 runs] | viability, T/C (compound 0.316 µM): 80.7% [middle of 8 runs] | viability, T/C (compound 1 µM): 73.6% [middle of 8 runs] | viability, T/C (compound 3.16 µM): 64.3% [middle of 8 runs] | viability, T/C (compound 10 µM): 45.7% [middle of 8 runs]

IC50 (second compound 0.0316 µM): > 1 µM | IC50 (second compound 0.1 µM): > 1 µM | IC50 (second compound 0.316 µM): > 1 µM | IC50 (second compound 1 µM): 0.162 µM | IC50 (second compound 3.16 µM): 0.0774 µM | IC50 (second compound 10 µM): < 0.00316 µM
SMILES: CCN1CCN(Cc2ccc(Nc3ncc(F)c(-c4cc(F)c5nc(C)n(C(C)C)c5c4)n3)nc2)CC1 + Cc1nc(NC(=O)N2CCCC2C(N)=O)sc1-c1ccnc(C(C)(C)C(F)(F)F)c1
viability, T/C (second compound 0.0316 µM, first compound 0.00316 µM): 107% | viability, T/C (second compound 0.0316 µM, first compound 0.01 µM): 64.6% | viability, T/C [13]: 90.9% | viability, T/C [14]: 77% | viability, T/C [15]: 77.8% | viability, T/C [16]: 64.7% | viability, T/C (second compound 0.1 µM, first compound 0.00316 µM): 109% | viability, T/C (second compound 0.1 µM, first compound 0.01 µM): 72.5% | viability, T/C [19]: 90.5% | viability, T/C [20]: 67.4% | viability, T/C [21]: 54.3% | viability, T/C [22]: 58.9% | viability, T/C (second compound 0.316 µM, first compound 0.00316 µM): 75.8% | viability, T/C (second compound 0.316 µM, first compound 0.01 µM): 82.1% | viability, T/C [25]: 64.2% | viability, T/C [26]: 58.4% | viability, T/C [27]: 60.8% | viability, T/C [28]: 57.4% | viability, T/C (second compound 1 µM, first compound 0.00316 µM): 56% | viability, T/C (second compound 1 µM, first compound 0.01 µM): 72% | viability, T/C [31]: 58.4% | viability, T/C [32]: 46.1% | viability, T/C [33]: 49.4% | viability, T/C [34]: 32.8% | viability, T/C (second compound 3.16 µM, first compound 0.00316 µM): 62.3% | viability, T/C (second compound 3.16 µM, first compound 0.01 µM): 78.5% | viability, T/C [37]: 59% | viability, T/C [38]: 49% | viability, T/C [39]: 44.1% | viability, T/C [40]: 41.5% | viability, T/C (second compound 10 µM, first compound 0.00316 µM): 47.1% | viability, T/C (second compound 10 µM, first compound 0.01 µM): 49% | viability, T/C [41]: 45.4% | viability, T/C [42]: 37% | viability, T/C [43]: 40.3% | viability, T/C [44]: 27.1%

IC50 (second compound 0.0316 µM): > 10 µM | IC50 (second compound 0.1 µM): > 10 µM | IC50 (second compound 0.316 µM): > 10 µM | IC50 (second compound 1 µM): > 10 µM | IC50 (second compound 3.16 µM): > 10 µM | IC50 (second compound 10 µM): > 10 µM
SMILES: CC(Cn1ccc(-c2ccc(C#N)c(Cl)c2)n1)NC(=O)c1cc(C(C)O)[nH]n1 (stereo not drawn) + CC(Nc1ncnc2nc[nH]c12)c1cc2cccc(Cl)c2c(=O)n1-c1ccccc1
viability, T/C [13]: 95.7% | viability, T/C [14]: 87.5% | viability, T/C [15]: 89.4% | viability, T/C [16]: 110% | viability, T/C [17]: 87.5% | viability, T/C [18]: 91.8% | viability, T/C [19]: 117% | viability, T/C [20]: 102% | viability, T/C [21]: 104% | viability, T/C [22]: 94.3% | viability, T/C [23]: 81.8% | viability, T/C [24]: 85.6% | viability, T/C [25]: 112% | viability, T/C [26]: 97.3% | viability, T/C [27]: 86.7% | viability, T/C [28]: 87.5% | viability, T/C [29]: 89% | viability, T/C [30]: 78.6% | viability, T/C [31]: 107% | viability, T/C [32]: 83.3% | viability, T/C [33]: 91.9% | viability, T/C [34]: 83.8% | viability, T/C [35]: 83.9% | viability, T/C [36]: 82.4% | viability, T/C [37]: 95.4% | viability, T/C [38]: 103% | viability, T/C [39]: 91.5% | viability, T/C [40]: 87.5% | viability, T/C (second compound 3.16 µM, first compound 3.16 µM): 69.2% | viability, T/C (second compound 3.16 µM, first compound 10 µM): 92.5% | viability, T/C [41]: 91.5% | viability, T/C [42]: 88.6% | viability, T/C [43]: 90% | viability, T/C [44]: 103% | viability, T/C (second compound 10 µM, first compound 3.16 µM): 83.7% | viability, T/C (second compound 10 µM, first compound 10 µM): 80.7%

IC50 (second compound 0.00316 µM): > 10 µM | IC50 (second compound 0.01 µM): > 10 µM | IC50 (second compound 0.0316 µM): > 10 µM | IC50 (second compound 0.1 µM): > 10 µM | IC50 (second compound 0.316 µM): > 10 µM | IC50 (second compound 1 µM): 7.61 µM
SMILES: CC(C)NCC(C(=O)N1CCN(c2ncnc3c2C(C)CC3O)CC1)c1ccc(Cl)cc1 (stereo not drawn) + CC(Nc1ccc2c(c1)OCCn1cc(N3C(=O)OCC3C(F)F)nc1-2)C(N)=O
viability, T/C [1]: 98.4% | viability, T/C [2]: 118% | viability, T/C [3]: 71.2% | viability, T/C [4]: 76.8% | viability, T/C [5]: 91.9% | viability, T/C [6]: 77.9% | viability, T/C [7]: 79.3% | viability, T/C [8]: 86.5% | viability, T/C [9]: 74.4% | viability, T/C [10]: 84.7% | viability, T/C [11]: 83.4% | viability, T/C [12]: 81.2% | viability, T/C [13]: 68.5% | viability, T/C [14]: 90.4% | viability, T/C [15]: 59.4% | viability, T/C [16]: 77.1% | viability, T/C [17]: 73.5% | viability, T/C [18]: 60.9% | viability, T/C [19]: 60.1% | viability, T/C [20]: 82% | viability, T/C [21]: 68.6% | viability, T/C [22]: 72.4% | viability, T/C [23]: 83.9% | viability, T/C [24]: 64% | viability, T/C [25]: 57.5% | viability, T/C [26]: 60.7% | viability, T/C [27]: 57.6% | viability, T/C [28]: 65.5% | viability, T/C [29]: 57.8% | viability, T/C [30]: 62.8% | viability, T/C [31]: 51.4% | viability, T/C [32]: 59.2% | viability, T/C [33]: 67.6% | viability, T/C [34]: 60.8% | viability, T/C [35]: 57.3% | viability, T/C [36]: 37.2%
